One assay deals with E. coli 25922. The assay can be described thus: Dilution antimicrobial susceptibility test (M07-A8), E. coli. The assay is classed as cell-based, Escherichia coli. The conditions noted are these: for MIC: Escherichia coli, antibacterial activity by dilution susceptibility test, isolate 25922; for E. coli/P. multocida: selectivity for P. multocida over E. coli (ratio of the two values). The procedure: (§1) Compounds of the present invention were tested against an assortment of Gram-negative and Gram-positive organisms using the industrial standard techniques described in Methods for Dilution Antimicrobial Susceptibility Tests for Bacteria That grow Aerobically; Approved Standard-Eighth Edition, […]-A8, Vol. 29 No. 2 Replaces […]-A7 Vol. 26 No. 2. […] When comparing the activity against these isolates with that of the marketed human health drug of cefepime (screened in the same panel), the exemplified compounds of the present invention show >200 times more selectivity over E. coli.

The next assay relates to P. multo 43719. The assay is described as follows: Dilution antimicrobial susceptibility test (M07-A8), P. multocida. The assay is classed as cell-based. The settings on record: Pasteurella multocida; antibacterial activity by dilution susceptibility test, isolate 43719. How it is done: as §1
Another assay concerns M. haemo 43411. The assay is described as follows: Dilution antimicrobial susceptibility test (M07-A8), M. haemolytica. Format: cell-based. The settings on record: Mannheimia haemolytica; antibacterial activity by dilution susceptibility test, isolate 43411. The procedure: as §1

The structures appear in SMILES notation. ≈ marks a conversion by molar mass, not a printed value.

Turning to `CO/N=C(\C(=O)N[C@@H]1C(=O)N2C(C(=O)O)=C(Cc3cccc(NS(C)(=O)=O)c3)CS[C@H]12)c1csc(N)n1` [Example 17, (6R,7R)-7-{[(2Z)-2-(2-amino-1,3-thiazol-4-yl)-2-(methoxyimino)acetyl]amino}-3-{3-[(methylsulfonyl)amino]benzyl}-8-oxo-5-thia-1-azabicyclo[4.2.0]oct-2-ene-2-carboxylic acid], the values for the MIC in the assay on E. coli 25922, in the assay on P. multo 43719 and in the assay on M. haemo 43411 were 8 µg/mL (≈ 14.1 µM), 0.03 µg/mL (≈ 0.0529 µM) and 0.015 µg/mL (≈ 0.0265 µM), respectively. The “E. coli/P. multocida” value with E. coli 25922 amounted to 266.

Consider `CNS(=O)(=O)c1cc(C)cc(CC2=C(C(=O)O)N3C(=O)[C@@H](NC(=O)/C(=N\OC)c4csc(N)n4)[C@H]3SC2)c1` [Example 27, (6R,7R)-7-{[(2Z)-2-(2-amino-1,3-thiazol-4-yl)-2-(methoxyimino)acetyl]amino}-3-[3-methyl-5-(methylsulfamoyl)benzyl]-8-oxo-5-thia-1-azabicyclo[4.2.0]oct-2-ene-2-carboxylic acid], for which the MIC (usually the lowest concentration that inhibits growth of the organism) amounted to 8 µg/mL (≈ 13.8 µM) in the assay with E. coli 25922, 0.015 µg/mL (≈ 0.0258 µM) against P. multo 43719 and 0.008 µg/mL (≈ 0.0138 µM) in the assay with M. haemo 43411. Also, the “E. coli/P. multocida” value in the assay with E. coli 25922 was 533.

As for `CO/N=C(\C(=O)N[C@@H]1C(=O)N2C(C(=O)O)=C(Cc3cc(C)cc(NS(C)(=O)=O)c3)CS[C@H]12)c1csc(N)n1` [Example 19, (6R,7R)-7-{[(2Z)-2-(2-amino-1,3-thiazol-4-yl)-2-(methoxyimino)acetyl]amino}-3-{3-methyl-5-[(methylsulfonyl)amino]benzyl}-8-oxo-5-thia-1-azabicyclo[4.2.0]oct-2-ene-2-carboxylic acid], the minimal inhibitory concentration (MIC) is 8 µg/mL (≈ 13.8 µM) with E. coli 25922, 0.008 µg/mL (≈ 0.0138 µM) in the assay with P. multo 43719 and 8 µg/mL (≈ 13.8 µM) against M. haemo 43411. In the assay on E. coli 25922, the “E. coli/P. multocida” value turned out to be 1000.

For `CO/N=C(\C(=O)N[C@@H]1C(=O)N2C(C(=O)O)=C(Cc3cccc(NC(=O)CSC)c3)CS[C@H]12)c1csc(N)n1` [Example 11, (6R,7R)-7-{[(2Z)-2-(2-amino-1,3-thiazol-4-yl)-2-(methoxyimino)acetyl]amino}-3-(3-{[(methylsulfanyl)acetyl]amino}benzyl)-8-oxo-5-thia-1-azabicyclo[4.2.0]oct-2-ene-2-carboxylic acid], the figures for the MIC against E. coli 25922, against P. multo 43719 and in the assay with M. haemo 43411 were 4 µg/mL (≈ 6.94 µM), 0.03 µg/mL (≈ 0.052 µM) and 0.03 µg/mL (≈ 0.052 µM), respectively. For the same compound, the “E. coli/P. multocida” value with E. coli 25922 came out at 133.

Regarding `CO/N=C(\C(=O)N[C@@H]1C(=O)N2C(C(=O)O)=C(Cc3cc(CSC(C)=O)ccc3C)CS[C@H]12)c1csc(N)n1` [Example 3, (6R,7R)-3-{5-[(acetylsulfanyl)methyl]-2-methylbenzyl}-7-{[(2Z)-2-(2-amino-1,3-thiazol-4-yl)-2-(methoxyimino)acetyl]amino}-8-oxo-5-thia-1-azabicyclo[4.2.0]oct-2-ene-2-carboxylic acid], the MIC was found to be 32 µg/mL (≈ 55.6 µM) against E. coli 25922, 0.125 µg/mL (≈ 0.217 µM) with P. multo 43719 and 0.25 µg/mL (≈ 0.434 µM) in the assay with M. haemo 43411. Moreover, the “E. coli/P. multocida” value in the assay with E. coli 25922 stood at 256.

On to `CO/N=C(\C(=O)N[C@@H]1C(=O)N2C(C(=O)O)=C(Cc3cc(S(=O)(=O)NCCSC(C)=O)ccc3C)CS[C@H]12)c1csc(N)n1` [Example 20, (6R,7R)-3-(5-{[2-(acetylsulfanyl)ethyl]sulfamoyl}-2-methylbenzyl)-7-{[(2Z)-2-(2-amino-1,3-thiazol-4-yl)-2-(methoxyimino)acetyl]amino}-8-oxo-5-thia-1-azabicyclo[4.2.0]oct-2-ene-2-carboxyl is acid], for which the MIC against E. coli 25922 was 64 µg/mL (≈ 95.7 µM); against P. multo 43719 it was 0.25 µg/mL (≈ 0.374 µM); in the assay with M. haemo 43411 it was 0.25 µg/mL (≈ 0.374 µM). Also, in the assay on E. coli 25922, the “E. coli/P. multocida” value is 256.

On to `CNS(=O)(=O)c1ccc(OC)c(CC2=C(C(=O)O)N3C(=O)[C@@H](NC(=O)/C(=N\OC)c4csc(N)n4)[C@H]3SC2)c1` [Example 22, (6R,7R)-7-{[(2Z)-2-(2-amino-1,3-thiazol-4-yl)-2-(methoxyimino)acetyl]amino}-3-[2-methoxy-5-(methylsulfamoyl)benzyl]-8-oxo-5-thia-1-azabicyclo[4.2.0]oct-2-ene-2-carboxylic acid], for which the figures for the MIC in the assay on E. coli 25922, in the assay with P. multo 43719 and against M. haemo 43411 were 64 µg/mL (≈ 107 µM), 0.25 µg/mL (≈ 0.419 µM) and 0.125 µg/mL (≈ 0.209 µM), respectively. Besides, the “E. coli/P. multocida” value with E. coli 25922 came out at 256.

With `CNS(=O)(=O)c1cc(CC2=C(C(=O)O)N3C(=O)[C@@H](NC(=O)/C(=N\OC)c4csc(N)n4)[C@H]3SC2)cc(OC)c1` [Example 26, (6R,7R)-7-{[(2Z)-2-(2-amino-1,3-thiazol-4-yl)-2-(methoxyimino)acetyl]amino}-3-[3-methoxy-5-(methylsulfamoyl)benzyl]-8-oxo-5-thia-1-azabicyclo[4.2.0]oct-2-ene-2-carboxylic acid], the MIC in the assay with E. coli 25922 amounted to 4 µg/mL (≈ 6.7 µM); with P. multo 43719, 0.015 µg/mL (≈ 0.0251 µM); against M. haemo 43411, 0.008 µg/mL (≈ 0.0134 µM). For the same compound, the “E. coli/P. multocida” value in the assay on E. coli 25922 is 266.

In the case of `CO/N=C(\C(=O)N[C@@H]1C(=O)N2C(C(=O)O)=C(Cc3cccc(CSC(C)=O)c3C)CS[C@H]12)c1csc(N)n1` [Example 1, (6R,7R)-3-{3-[(acetylsulfanyl)methyl]-2-methylbenzyl}-7-{[(2Z)-2-(2-amino-1,3-thiazol-4-yl)-2-(methoxyimino)acetyl]amino}-8-oxo-5-thia-1-azabicyclo[4.2.0]oct-2-ene-2-carboxylic acid], the MIC in the assay on E. coli 25922 amounted to 16 µg/mL (≈ 27.8 µM); against P. multo 43719, 0.03 µg/mL (≈ 0.0521 µM); in the assay on M. haemo 43411, 0.06 µg/mL (≈ 0.104 µM). In addition, the “E. coli/P. multocida” value with E. coli 25922 was 533.

As for `CCN(CCSC(C)=O)S(=O)(=O)c1cccc(CC2=C(C(=O)O)N3C(=O)[C@@H](NC(=O)/C(=N\OC)c4csc(N)n4)[C@H]3SC2)c1` [Example 21, (6R,7R)-3-(3-{[2-(acetylsulfanyl)ethyl](ethyl)sulfamoyl}benzyl)-7-{[(2Z)-2-(2-amino-1,3-thiazol-4-yl)-2-(methoxyimino)acetyl]amino}-8-oxo-5-thia-1-azabicyclo[4.2.0]oct-2-ene-2-carboxylic acid], the MIC in the assay on E. coli 25922 is 32 µg/mL (≈ 46.9 µM); in the assay on P. multo 43719, 0.03 µg/mL (≈ 0.0439 µM); against M. haemo 43411, 0.125 µg/mL (≈ 0.183 µM). The “E. coli/P. multocida” value with E. coli 25922 is reported as 1066.

On to `CO/N=C(\C(=O)N[C@@H]1C(=O)N2C(C(=O)O)=C(Cc3cccc(NC(=O)CSC(C)=O)c3)CS[C@H]12)c1csc(N)n1` [Example 12, (6R,7R)-3-(3-{[(acetylsulfanyl)acetyl]amino}benzyl)-7-{[(2Z)-2-(2-amino-1,3-thiazol-4-yl)-2-(methoxyimino)acetyl]amino}-8-oxo-5-thia-1-azabicyclo[4.2.0]oct-2-ene-2-carboxylic acid], for which the MIC in the assay on E. coli 25922 came out at 8 µg/mL (≈ 13.2 µM); against P. multo 43719, 0.06 µg/mL (≈ 0.0992 µM); in the assay with M. haemo 43411, 0.03 µg/mL (≈ 0.0496 µM). For the same compound, the “E. coli/P. multocida” value with E. coli 25922 is 133.

`CO/N=C(\C(=O)N[C@@H]1C(=O)N2C(C(=O)O)=C(Cc3c(C)ccc(CSC(C)=O)c3C)CS[C@H]12)c1csc(N)n1` [Example 4, (6R,7R)-3-{3-[(acetylsulfanyl)methyl]-2,6-dimethylbenzyl}-7-{[(2Z)-2-(2-amino-1,3-thiazol-4-yl)-2-(methoxyimino)acetyl]amino}-8-oxo-5-thia-1-azabicyclo[4.2.0]oct-2-ene-2-carboxylic acid]: the MIC in the assay on E. coli 25922 worked out at 32 µg/mL (≈ 54.3 µM); in the assay on P. multo 43719, 0.25 µg/mL (≈ 0.424 µM); in the assay on M. haemo 43411, 0.5 µg/mL (≈ 0.848 µM). In addition, the “E. coli/P. multocida” value in the assay with E. coli 25922 was found to be 128.
